The values below come from PubChem BioAssay AID1197 (NMMLSC, 2008).

A short description of experiment [1]: LNCaP cell killing by flow cytometry event count, dose response, cytotoxicity control for prostate cell differentiation activator project (AID 1197). The conditions noted are these: LNCaP cell loss, flow cytometry event count, 4 d; at 30 µM (top of the series). In general terms: A flow cytometer gives signals particle by particle.
In experiment [2] the test system is LNCaP cell loss, flow cytometry event count, 4 d. The description is as above.

Active and inactive are the calls of the source. No rule for the calls is given here.

On to `O=C(NCCCN1CCN(c2ccc(F)cc2)CC1)c1cccc(N2CCCC2=O)c1`, for which the event count (lower = more killing) in experiment [1] is 191% (inactive).

The term EC50 denotes the concentration needed to bring the measured effect to its halfway point. Turning to `COc1ccc(-c2oc3ncn(CCN4CCOCC4)c(=N)c3c2-c2ccc(OC)cc2)cc1`, in experiment [2], the EC50 is 0.198 µM.

Turning to `CCOc1cccc2cc(-c3cn4cc(C)ccc4n3)c(=O)oc12`, in experiment [1], the event count (lower = more killing) is 76.2% (inactive).

Take `CN1CCN(c2cc3c(c4c2[nH]c2ccccc24)C(=O)CC(C)(C)C3)CC1`: the event count (lower = more killing) in experiment [1] was 48.8% (inactive).

Turning to `Oc1c(CN2CCCCC2)cc(COCc2ccccc2)c2cccnc12`, the event count (lower = more killing) in experiment [1] is 137% (inactive).

With `CCCS(=O)(=O)N1CCCC(C(=O)NCCCN2CCN(c3ccc(F)cc3)CC2)C1` (stereo not drawn), the event count (lower = more killing) in experiment [1] is 238% (inactive).

As to `CN(C)CCCN1c2ccccc2CCc2ccc(Cl)cc21`, the event count (lower = more killing) in experiment [1] is 32.2% (inactive).

`CCN1CCN(CCNC(=O)C2CCN(Cc3nc(-c4ccc(Cl)cc4)oc3C)CC2)CC1`: the event count (lower = more killing) in experiment [1] was 83.2% (inactive).

As for `Cc1cccc(-c2nsc(SCC(=O)Nc3nccs3)n2)c1`, in experiment [1], the event count (lower = more killing) was 296% (inactive).

As for `Cc1ccccc1-c1nc(CN2CCC(C(=O)NCCCN3CC(C)CC(C)C3)CC2)c(C)o1` (stereo not drawn), the event count (lower = more killing) in experiment [1] was 108% (inactive).

As to `O=S1(=O)C=C(Sc2nc3ccccc3s2)c2ccccc21`, the event count (lower = more killing) in experiment [1] is 150% (inactive).

On to `Cc1ccccc1-c1nc(CN2CCC(C(=O)NCCCN3CCOCC3)CC2)c(C)o1`, for which the event count (lower = more killing) in experiment [1] was 109% (inactive).

Turning to `Cc1ccc(C)c(N2CCN(CCCNC(=O)Cn3cc4c(n3)CCCCC4)CC2)c1`, the event count (lower = more killing) in experiment [1] was 71.8% (inactive).

With `CCN(CC)CCNC(=O)c1ccc(N2CCCCC2)c(NS(=O)(=O)c2ccc(C)cc2)c1`, the event count (lower = more killing) in experiment [1] was 70.8% (inactive).

`COc1ccc(N2CCN(CCCNC(=O)CC3Oc4ccc(C)cc4NC3=O)CC2)cc1` (stereo not drawn): the event count (lower = more killing) in experiment [1] is 343% (inactive).

On to `CCn1c(=O)cc(SCC(=O)NCCCN2CCN(c3ccccc3F)CC2)c2ccccc21`, for which the event count (lower = more killing) in experiment [1] is 210% (inactive).

On to `CCc1ccc(-c2nc(CN3CCC(C(=O)NCc4ccc(F)cc4)CC3)c(C)o2)cc1`, for which the concentration for a half-maximal effect (EC50) in experiment [2] is 5.17 µM.

Regarding `Cn1c(=O)[nH]c(=O)c2c1nc(Br)n2CCCSc1nc2ccccc2o1`, in experiment [1], the event count (lower = more killing) was 150% (inactive).

With `COc1ccc(N2CCN(CCCNC(=O)c3cc4sccc4n3C)CC2)cc1`, the event count (lower = more killing) in experiment [1] was 282% (inactive).

Turning to `CCCOc1ccccc1C1CC(=O)Nc2cc3c(cc21)OCO3` (stereo not drawn), the event count (lower = more killing) in experiment [1] is 21.8% (inactive).

Turning to `O=C(CCN1C(=O)COc2ccccc21)NCCCN1CCN(c2ccc(F)cc2)CC1`, in experiment [1], the event count (lower = more killing) is 279% (inactive).

For the molecule `CCCc1cc(-c2n[nH]c(C)c2-c2ccc(C(=O)OCC)o2)c(O)cc1O`, in experiment [1], the event count (lower = more killing) was 98.2% (inactive).

Turning to `CN1CCN(CCCNC(=O)c2cc3c(-c4ccc(Cl)cc4)nn(C)c3s2)CC1`, the EC50 in experiment [2] was 12.6 µM (inactive).

With `CCn1c(=O)cc(SCC(=O)NCCN2CCN(Cc3ccccc3)CC2)c2ccccc21`, the event count (lower = more killing) in experiment [1] was 306% (inactive).

As for `COc1ccc(CCn2c(=N)c(C(=O)NCc3ccco3)cc3c(=O)n4ccccc4nc32)cc1`, the event count (lower = more killing) in experiment [1] was 37.8% (inactive).

As for `COc1ccc(-c2cc(C(F)(F)F)nc(N3CCN(Cc4ccccc4)CC3)n2)cc1OC`, the EC50 in experiment [2] is 0.549 µM.

For the molecule `Cc1cc(N2CCN(C)CC2)nc2ccc(NC(=O)c3ccc(Br)o3)cc12`, the event count (lower = more killing) in experiment [1] was 422% (inactive).

`CN(C)c1ccc(CNC2CC(C)(C)NC(C)(C)C2)cc1`: in experiment [1], the event count (lower = more killing) was 284% (inactive).

Turning to `CCN(CC)CCCNC(=O)c1cc2c(-c3ccc(Cl)cc3)nn(C)c2s1`, the event count (lower = more killing) in experiment [1] is 22.2% (inactive).

For `COc1ccc(CCN2CCC(Nc3nc4ccccc4n3Cc3ccc(F)cc3)CC2)cc1`, the concentration giving a half-maximal response (EC50) in experiment [2] was 3.74 µM.

Consider `CN(CCNC(=O)C1CC(=O)N(c2ccc(F)c(Cl)c2)C1)Cc1ccccc1` (stereo not drawn), for which the event count (lower = more killing) in experiment [1] was 343% (inactive).

As for `Cc1cc(N2CCN(C)CC2)nc2ccc(NC(=O)c3ccc4c(c3)OCO4)cc12`, in experiment [1], the event count (lower = more killing) is 80.5% (inactive).

Turning to `Cc1ccc(OCC(O)Cn2c(=N)n(CCN3CCCCC3)c3ccccc32)cc1` (stereo not drawn), the 50% effective concentration (EC50) in experiment [2] is 8.65 µM.

`COc1ccc(Cc2nc(-c3ccc(-n4cccc4)cc3)no2)cc1OC`: in experiment [1], the event count (lower = more killing) was 104% (inactive).

As to `CCN1CCN(C(c2cccs2)C(C)NS(=O)(=O)c2ccc(Br)cc2)CC1` (stereo not drawn), the event count (lower = more killing) in experiment [1] was 282% (inactive).

Regarding `COc1ccc(-c2noc(CCC(=O)NCCCN3CCC(Cc4ccccc4)CC3)n2)cc1`, the EC50 in experiment [2] was 15.6 µM (inactive).

Take `CCCN(CCC)CCNC(=O)C1CCN(Cc2nc(-c3ccc(Cl)cc3)oc2C)CC1`: the EC50 in experiment [2] was 15.7 µM (inactive).

For `COc1ccccc1N1CCN(c2nc3ccccc3nc2C(C#N)C(=O)OC(C)C)CC1` (stereo not drawn), the EC50 in experiment [2] was 2.77 µM.

Take `CCOC(=O)c1c(C)[nH]c(C(=O)COC(=O)C2CC2C)c1C` (stereo not drawn): the 50% effective concentration (EC50) in experiment [2] is 0.166 µM.

`Cc1ccc(CNc2nc3ccccc3n3nnnc23)cc1`: the event count (lower = more killing) in experiment [1] was 128% (inactive).

Consider `COc1ccccc1NC(=O)c1nc[nH]c1C(=O)Nc1ccccc1OC`, for which the event count (lower = more killing) in experiment [1] was 87.2% (inactive).

As for `Cn1nc(-c2ccc(Cl)cc2)c2cc(C(=O)NCCCN3CCOCC3)sc21`, in experiment [2], the EC50 was 14.5 µM (inactive).

On to `COc1ccc(-c2ccc(-c3noc(-c4ccccc4)n3)c(OC)n2)cc1`, for which the event count (lower = more killing) in experiment [1] was 153% (inactive).

Turning to `CCN(CC)CC(=O)Nc1ccc(-c2nc3cc(NC(=O)CN(CC)CC)ccc3o2)cc1`, the event count (lower = more killing) in experiment [1] is 98.5% (inactive).

In the case of `CCOC(=O)c1c(C)n(C)c2ccc(OCC(O)CNC(CC)CO)cc12` (stereo not drawn), the event count (lower = more killing) in experiment [1] is 115% (inactive).

With `CC1CCCCN1CCNC(=O)c1ccc2c(=O)n(CCc3ccccc3)c(=O)[nH]c2c1` (stereo not drawn), in experiment [1], the event count (lower = more killing) is 191% (inactive).

Turning to `Cc1ccccc1-c1nc(CN2CCC(C(=O)NCCCN3CCCC3)CC2)c(C)o1`, in experiment [1], the event count (lower = more killing) was 76.5% (inactive).

As to `CN(CC(O)COc1ccc(OCC(O)CN(C)C2CCCCC2)cc1)C1CCCCC1` (stereo not drawn), in experiment [1], the event count (lower = more killing) is 126% (inactive).

Take `Cc1ccccc1-c1nc(CN2CCCC(C(=O)NCCCN3CCOCC3)C2)c(C)o1` (stereo not drawn): the event count (lower = more killing) in experiment [1] was 187% (inactive).

Take `COc1cc2nc(N3CCN(C(=O)C4COc5ccccc5O4)CC3)nc(N)c2cc1OC` (stereo not drawn): the event count (lower = more killing) in experiment [1] is 104% (inactive).

`Cc1ccccc1-c1nc(CN2CCC(C(=O)NCc3cccnc3)CC2)c(C)o1`: the event count (lower = more killing) in experiment [1] is 295% (inactive).

`CCOc1ccc(NC(=O)COc2nsnc2N2CCCCC2)cc1`: in experiment [1], the event count (lower = more killing) was 160% (inactive).

As for `Cc1oc(-c2ccc(Cl)cc2)nc1CN1CCC(C(=O)N2CCN(Cc3ccccc3)CC2)CC1`, the event count (lower = more killing) in experiment [1] is 91.8% (inactive).

Consider `Cc1cc(C)nc(N2CCC(C(=O)Nc3ccc(Oc4ccccc4)cc3)CC2)n1`, for which the event count (lower = more killing) in experiment [1] is 170% (inactive).

On to `O=C(NCCCN1CCN(c2cccc(Cl)c2)CC1)c1cccc(N2CCCC2=O)c1`, for which the event count (lower = more killing) in experiment [1] was 305% (inactive).

`CCOC(=O)c1ccccc1NC(=O)Cn1c(-c2nonc2N)nc2ccccc21`: the event count (lower = more killing) in experiment [1] is 116% (inactive).

In the case of `Cc1nc2ncnn2c(C)c1CCC(=O)NCCCN1CCN(c2cccc(Cl)c2)CC1`, the event count (lower = more killing) in experiment [1] is 374% (inactive).

As for `COc1ccc(N2CCN(CCCNC(=O)CCCn3c(=O)[nH]c4ccsc4c3=O)CC2)cc1`, the event count (lower = more killing) in experiment [1] is 175% (inactive).

`CC1CCCCN1CCNC(=O)c1cc2c(-c3ccccc3F)nn(C)c2s1` (stereo not drawn): the event count (lower = more killing) in experiment [1] is 103% (inactive).

Consider `Cc1ccc(Nc2cc(=O)n(C3CCCCC3)c(=O)[nH]2)cc1C`, for which, in experiment [1], the event count (lower = more killing) is 55.5% (inactive).

As to `CC(C)(C)c1ccc(C(O)CCCN2CCC(C(O)(c3ccccc3)c3ccccc3)CC2)cc1` (stereo not drawn), the event count (lower = more killing) in experiment [1] was 23.5% (inactive).

For `CCOc1ccccc1NC(=O)c1nc[nH]c1C(=O)Nc1ccccc1OCC`, the event count (lower = more killing) in experiment [1] was 257% (inactive).

Turning to `CCn1c(=N)n(CC(O)COc2cccc(C)c2)c2ccccc21` (stereo not drawn), the event count (lower = more killing) in experiment [1] is 275% (inactive).

Take `Cc1ccc(Cl)cc1N1CCN(C(=O)c2cc3c(=O)n(C)c4ccccc4c3n2C)CC1`: in experiment [1], the event count (lower = more killing) was 26.8% (inactive).

Regarding `Nc1ccc(-n2ccnc2)cc1`, the event count (lower = more killing) in experiment [1] is 282% (inactive).

With `Cn1c(C(=O)NCCCN2CCN(c3cccc(Cl)c3)CC2)cc2c(=O)n(C)c3ccccc3c21`, in experiment [1], the event count (lower = more killing) was 137% (inactive).

Consider `CCN(CC)CCNC(=O)c1cc2c(-c3ccc(Cl)cc3)nn(C)c2s1`, for which the event count (lower = more killing) in experiment [1] is 140% (inactive).

Take `O=C(c1ccccc1)c1ccc(N2CCNCC2)cc1`: the event count (lower = more killing) in experiment [1] is 236% (inactive).

Turning to `Cn1c(=O)cc(SCC(=O)NCCCN2CCN(c3ccccc3F)CC2)c2ccccc21`, in experiment [1], the event count (lower = more killing) is 258% (inactive).

Regarding `Clc1ccc(COC(Cn2ccnc2)c2ccc(Cl)cc2Cl)cc1` (stereo not drawn), the event count (lower = more killing) in experiment [1] was 223% (inactive).

In the case of `CCN1CCN(c2ncc(C(=O)Nc3cc(Cl)c(OC)cc3OC)c3ccccc23)CC1`, the event count (lower = more killing) in experiment [1] was 208% (inactive).

With `CCN1CCN(c2cc(C)c3cc(NC(=O)c4ccc(Br)o4)ccc3n2)CC1`, the event count (lower = more killing) in experiment [1] was 55.2% (inactive).

Consider `C[C@H]1CCC/C=C/C2C[C@H](O)CC2[C@H](O)/C=C/C(=O)O1` (stereo partly drawn), for which the event count (lower = more killing) in experiment [1] was 12.8% (inactive).

In the case of `O=C(Cn1cc2c(n1)CCCC2)NCCCN1CCN(c2ccccc2F)CC1`, the event count (lower = more killing) in experiment [1] was 333% (inactive).

Regarding `Cc1ccc2c(c1)-c1c(cnn1CC(=O)Nc1ccccc1N1CCN(C)CC1)CO2`, in experiment [1], the event count (lower = more killing) was 163% (inactive).

For the molecule `COC(=O)c1cc(-c2ccccc2)sc1NC(=O)c1cc(C)on1`, in experiment [1], the event count (lower = more killing) is 394% (inactive).

Turning to `CCN1CCCC1CNC(=O)c1cc2c(-c3ccc(Cl)cc3)nn(C)c2s1` (stereo not drawn), the event count (lower = more killing) in experiment [1] is 27.8% (inactive).

Take `O=c1cc(-c2ccccc2)[nH]c2ccccc12`: the event count (lower = more killing) in experiment [1] is 83.8% (inactive).
